Reference: PubChem BioAssay (NCI)
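These data come from cells grown in 96-well plates and exposed to compound for 48 hours at five concentrations. GI50 marks 50% less growth. TGI marks complete inhibition of growth.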

What was measured:
Assay in all cases: inhibition of tumour cell growth, NCI panel, 48 h
786-0 renal = tested on: 786-0 renal
A498 renal = tested on: A498 renal
A549 NSCLC = tested on: A549 NSCLC
ACHN renal = tested on: ACHN renal
BT-549 breast = tested on: BT-549 breast
CAKI-1 renal = tested on: CAKI-1 renal
CCRF-CEM leukemia = tested on: CCRF-CEM leukemia
COLO 205 colon = tested on: COLO 205 colon
DU-145 prostate = tested on: DU-145 prostate
EKVX NSCLC = tested on: EKVX NSCLC
HCC-2998 colon = tested on: HCC-2998 colon
HCT-116 colon = tested on: HCT-116 colon
HCT-15 colon = tested on: HCT-15 colon
HL-60(TB) leukemia = tested on: HL-60(TB) leukemia
HOP-62 NSCLC = tested on: HOP-62 NSCLC
HOP-92 NSCLC = tested on: HOP-92 NSCLC
HS 578T breast = tested on: HS 578T breast
HT29 colon = tested on: HT29 colon
IGROV1 ovarian = tested on: IGROV1 ovarian
K-562 leukemia = tested on: K-562 leukemia
KM12 colon = tested on: KM12 colon
LOX IMVI melanoma = tested on: LOX IMVI melanoma
M14 melanoma = tested on: M14 melanoma
MALME-3M melanoma = tested on: MALME-3M melanoma
MCF7 breast = tested on: MCF7 breast
MDA-MB-231 breast = tested on: MDA-MB-231 breast
MDA-MB-435 = tested on: MDA-MB-435
MOLT-4 leukemia = tested on: MOLT-4 leukemia
NCI-H226 lung = tested on: NCI-H226 lung
NCI-H23 lung = tested on: NCI-H23 lung
NCI-H460 lung = tested on: NCI-H460 lung
NCI-H522 lung = tested on: NCI-H522 lung
NCI/ADR-RES ovarian = tested on: NCI/ADR-RES ovarian
OVCAR-3 ovarian = tested on: OVCAR-3 ovarian
OVCAR-4 ovarian = tested on: OVCAR-4 ovarian
OVCAR-5 ovarian = tested on: OVCAR-5 ovarian
OVCAR-8 ovarian = tested on: OVCAR-8 ovarian
PC-3 prostate = tested on: PC-3 prostate
RPMI-8226 leukemia = tested on: RPMI-8226 leukemia
RXF 393 renal = tested on: RXF 393 renal
SF-268 CNS = tested on: SF-268 CNS
SF-295 CNS = tested on: SF-295 CNS
SF-539 CNS = tested on: SF-539 CNS
SK-MEL-2 melanoma = tested on: SK-MEL-2 melanoma
SK-MEL-28 melanoma = tested on: SK-MEL-28 melanoma
SK-MEL-5 melanoma = tested on: SK-MEL-5 melanoma
SK-OV-3 ovarian = tested on: SK-OV-3 ovarian
SN12C renal = tested on: SN12C renal
SNB-19 CNS = tested on: SNB-19 CNS
SNB-75 CNS = tested on: SNB-75 CNS
SR leukemia = tested on: SR leukemia
SW-620 colon = tested on: SW-620 colon
T-47D breast = tested on: T-47D breast
TK-10 renal = tested on: TK-10 renal
U251 CNS = tested on: U251 CNS
UACC-257 melanoma = tested on: UACC-257 melanoma
UACC-62 melanoma = tested on: UACC-62 melanoma
UO-31 renal = tested on: UO-31 renal

CCOC(=O)Cn1c(C)c(/C=N/NC(=O)c2cc3c(ccc4ccccc43)o2)c2ccccc21
GI50 (786-0 renal): 491 nM | TGI (786-0 renal): 2240 nM | GI50 (A498 renal): 134 nM | TGI (A498 renal): 1040 nM | GI50 (A549 NSCLC): 627 nM | TGI (A549 NSCLC): 5.85 µM | GI50 (ACHN renal): 926 nM | TGI (ACHN renal): 3.21 µM | GI50 (BT-549 breast): 853 nM | TGI (BT-549 breast): 5.13 µM | GI50 (CAKI-1 renal): 575 nM | TGI (CAKI-1 renal): 2370 nM | GI50 (CCRF-CEM leukemia): 410 nM | TGI (CCRF-CEM leukemia): > 100 µM | GI50 (COLO 205 colon): 401 nM | GI50 (DU-145 prostate): 411 nM | TGI (DU-145 prostate): 2930 nM | GI50 (EKVX NSCLC): 662 nM | TGI (EKVX NSCLC): 42.5 µM | GI50 (HCC-2998 colon): 609 nM | TGI (HCC-2998 colon): 2840 nM | GI50 (HCT-116 colon): 338 nM | TGI (HCT-116 colon): 1460 nM | GI50 (HCT-15 colon): 408 nM | TGI (HCT-15 colon): 5.45 µM | GI50 (HL-60(TB) leukemia): 345 nM | TGI (HL-60(TB) leukemia): 7.83 µM | GI50 (HOP-62 NSCLC): 554 nM | TGI (HOP-62 NSCLC): 4.79 µM | GI50 (HOP-92 NSCLC): 354 nM | TGI (HOP-92 NSCLC): 4.94 µM | GI50 (HS 578T breast): 514 nM | TGI (HS 578T breast): 25.2 µM | GI50 (HT29 colon): 355 nM | TGI (HT29 colon): 1900 nM | GI50 (IGROV1 ovarian): 527 nM | TGI (IGROV1 ovarian): 3.47 µM | GI50 (K-562 leukemia): 342 nM | TGI (K-562 leukemia): > 100 µM | GI50 (KM12 colon): 306 nM | TGI (KM12 colon): 1520 nM | GI50 (LOX IMVI melanoma): 537 nM | TGI (LOX IMVI melanoma): 2780 nM | GI50 (M14 melanoma): 307 nM | TGI (M14 melanoma): 4.35 µM | GI50 (MALME-3M melanoma): 575 nM | TGI (MALME-3M melanoma): 3.22 µM | GI50 (MCF7 breast): 310 nM | TGI (MCF7 breast): 4.85 µM | GI50 (MDA-MB-231 breast): 702 nM | TGI (MDA-MB-231 breast): 3.33 µM | GI50 (MDA-MB-435): 47.4 nM | TGI (MDA-MB-435): 251 nM | GI50 (MOLT-4 leukemia): 960 nM | TGI (MOLT-4 leukemia): > 30.1 µM | GI50 (NCI-H226 lung): 801 nM | TGI (NCI-H226 lung): 5.39 µM | GI50 (NCI-H23 lung): 669 nM | TGI (NCI-H23 lung): 6.91 µM | GI50 (NCI-H460 lung): 383 nM | TGI (NCI-H460 lung): 1790 nM | GI50 (NCI-H522 lung): 399 nM | TGI (NCI-H522 lung): 6.93 µM | GI50 (NCI/ADR-RES ovarian): 259 nM | TGI (NCI/ADR-RES ovarian): 3.08 µM | GI50 (OVCAR-3 ovarian): 319 nM | TGI (OVCAR-3 ovarian): 1870 nM | GI50 (OVCAR-4 ovarian): 1360 nM | TGI (OVCAR-4 ovarian): 9.27 µM | GI50 (OVCAR-5 ovarian): 872 nM | TGI (OVCAR-5 ovarian): 10.7 µM | GI50 (OVCAR-8 ovarian): 486 nM | GI50 (PC-3 prostate): 332 nM | TGI (PC-3 prostate): 6 µM | GI50 (RPMI-8226 leukemia): 443 nM | TGI (RPMI-8226 leukemia): 3.12 µM | GI50 (RXF 393 renal): 319 nM | TGI (RXF 393 renal): 1080 nM | GI50 (SF-268 CNS): 1030 nM | GI50 (SF-295 CNS): 323 nM | TGI (SF-295 CNS): 1650 nM | GI50 (SF-539 CNS): 316 nM | TGI (SF-539 CNS): 1280 nM | GI50 (SK-MEL-2 melanoma): 770 nM | TGI (SK-MEL-2 melanoma): 7.05 µM | GI50 (SK-MEL-28 melanoma): 1660 nM | TGI (SK-MEL-28 melanoma): 30.5 µM | GI50 (SK-MEL-5 melanoma): 381 nM | TGI (SK-MEL-5 melanoma): 1710 nM | GI50 (SK-OV-3 ovarian): 804 nM | TGI (SK-OV-3 ovarian): 9.44 µM | GI50 (SN12C renal): 707 nM | TGI (SN12C renal): 3.85 µM | GI50 (SNB-19 CNS): 478 nM | TGI (SNB-19 CNS): 16.3 µM | GI50 (SNB-75 CNS): 244 nM | TGI (SNB-75 CNS): 1420 nM | GI50 (SR leukemia): 153 nM | TGI (SR leukemia): > 21.8 µM | GI50 (SW-620 colon): 480 nM | TGI (SW-620 colon): 11.4 µM | GI50 (T-47D breast): 653 nM | TGI (T-47D breast): > 27.8 µM | GI50 (TK-10 renal): 1260 nM | TGI (TK-10 renal): 3.92 µM | GI50 (U251 CNS): 426 nM | TGI (U251 CNS): 4.17 µM | GI50 (UACC-257 melanoma): 2380 nM | TGI (UACC-257 melanoma): > 30.4 µM | GI50 (UACC-62 melanoma): 300 nM | TGI (UACC-62 melanoma): 11 µM | GI50 (UO-31 renal): 753 nM | TGI (UO-31 renal): 2610 nM
